In BindingDB's records for patent US9908886 (Agency For Science, Technology and Research, 2018) one finds IC50 data, which are given here for one compound.

Test [1] has as its target MAP kinase-interacting serine/threonine-protein kinase 1 (Homo sapiens, UniProt Q9BUB5). Nature of the test: In Vitro Kinase Assay. The method, then:
(§1) MNK1 and MNK2 inhibitor activity was determined using recombinant kinase domains expressed in E. coli. MNK1 and MNK2 were expressed as GST fusion proteins and the GST tag was removed using PreScission protease. After concentration to 10-15 mg/ml the proteins were flash frozen in liquid nitrogen and stored at −80° C. […] This reaction mixture was then used immediately for the activation of the MNKs. The activation of the MNK1 was performed by incubating 5.0 μM of MNK1 with 0.3 μM of activated ERK2 and 500 μM ATP at 30° C. for 6 hours. The activation of MNK2 was performed by incubating 50 μM of MNK2 with 3.0 μM of activated ERK2 and 500 μM ATP at 30° C. for 2 hours. The activated MNKs were stored at −20° C. until required for assay.

For test [2], the target named is MAP kinase-interacting serine/threonine-protein kinase 2 (Homo sapiens, UniProt Q9HBH9). The experiment in a line: In Vitro Kinase Assay. The method, then: as §1
Chain of MAP kinase-interacting serine/threonine-protein kinase 2 (Q9HBH9 whole entry): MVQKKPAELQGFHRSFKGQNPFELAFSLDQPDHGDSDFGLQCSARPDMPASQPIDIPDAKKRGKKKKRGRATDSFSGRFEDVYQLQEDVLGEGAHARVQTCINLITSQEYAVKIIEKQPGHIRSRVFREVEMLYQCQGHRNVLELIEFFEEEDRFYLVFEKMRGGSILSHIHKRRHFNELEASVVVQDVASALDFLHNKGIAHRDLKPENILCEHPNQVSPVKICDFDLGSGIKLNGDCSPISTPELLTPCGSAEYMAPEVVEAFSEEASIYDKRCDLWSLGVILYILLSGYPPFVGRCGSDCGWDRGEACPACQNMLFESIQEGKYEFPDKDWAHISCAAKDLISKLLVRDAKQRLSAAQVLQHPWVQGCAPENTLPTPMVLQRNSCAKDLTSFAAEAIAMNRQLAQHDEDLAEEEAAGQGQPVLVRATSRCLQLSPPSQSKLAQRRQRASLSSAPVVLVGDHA

Chain of MAP kinase-interacting serine/threonine-protein kinase 1 (Q9BUB5 whole entry, the tested form may be a part): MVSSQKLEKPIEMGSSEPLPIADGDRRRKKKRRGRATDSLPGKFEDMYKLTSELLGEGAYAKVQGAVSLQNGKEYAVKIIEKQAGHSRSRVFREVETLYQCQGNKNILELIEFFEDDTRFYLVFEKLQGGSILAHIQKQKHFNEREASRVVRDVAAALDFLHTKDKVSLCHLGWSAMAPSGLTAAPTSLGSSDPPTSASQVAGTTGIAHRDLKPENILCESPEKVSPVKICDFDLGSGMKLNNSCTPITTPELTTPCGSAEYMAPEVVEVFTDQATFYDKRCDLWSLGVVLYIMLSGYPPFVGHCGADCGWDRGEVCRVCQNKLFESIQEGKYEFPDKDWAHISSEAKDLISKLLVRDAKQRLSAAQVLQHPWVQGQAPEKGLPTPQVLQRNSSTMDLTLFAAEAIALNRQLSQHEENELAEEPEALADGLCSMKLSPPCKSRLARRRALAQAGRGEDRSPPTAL

The IC50 is the concentration at which inhibition is half-maximal. Turning to `CN1CCN(C(=O)c2ccc(-c3ccc4ncc(-c5ccc(C#N)cc5)n4n3)cc2)CC1` [US9908886, Example 54], the half-inhibitory concentration (IC50) in test [1] and in test [2] was less than 100 nM in each case.
